# Results as given in patent publication US20240132519A1, “NRF2-ACTIVATING COMPOUND” (SENJU PHARMACEUTICAL CO., LTD., priority 2020, published 2024).
# Target: binding between NRF2 and KEAP1 (Homo sapiens (Human), UniProt Q14145)
# Assay: Binding assay: inhibition of binding between NRF2 and KEAP1 by BRET (NanoLuc-NRF2 and KEAP1-HaloTag cell lysates)
# Settings: Test Example 1-1; NRF2-KEAP1 BRET; N=2
# Protocol: The inhibitory activity of each compound on the binding between NRF2 and KEAP1 was measured by bioluminescence resonance energy transfer (BRET) assay. A plasmid having human NRF2 (Original Clone ID: ha01449s1) sequence fused with NanoLuc (19 kDa, Promega) at the N-terminal was transduced into HCE-T cells (immortalized human corneal epithelial cells) using FuGENE HD (Promega). 48 hours after transduction, the cell lysate was collected and used as an NRF2-expressing cell lysate. A plasmid having human KEAP1 (Original Clone ID: cs00328) sequence fused with HaloTag (33 kDa, Promega) at the C-terminal was transduced into HCE-T cells using FuGENE HD (Promega). After 24 hours, HaloTag Nano BRET 618 Ligand (Promega) was added to the medium. The cell lysate cultured for 24 hours after the addition was used as a KEAP1-expressing cell lysate.
# The NRF2-expressing cell lysate and the KEAP1-expressing cell lysate were adjusted so that the luminescence and fluorescence intensities per well were constant. Tables 1 and 2 show the formulation of each reaction solution.
# Each test substance at a concentration 100 times higher than the test concentration was dissolved in dimethylsulfoxide for adjustment. 49 μL of KEAP1 solution was added to a 96-well polystyrene microplate (FALCON) to which 1 μL of each test substance solution was added, followed by incubation for 15 minutes. Then, 50 μL of NRF2 solution was added to the above solution, followed by incubation for 1 hour. To measure the binding between NRF2 and KEAP1, NanoBRET Nano-Glo Substrate (Promega) diluted with Opti-Mem (Thermo Fisher Scientific) was added, followed by shaking for 30 seconds. Then, luminescence and fluorescence were measured using the GloMax Discover System (Promega). A 495-nm short pass filter and a 600-nm long pass filter were respectively used to measure donor and acceptor emission values. A value obtained by dividing the acceptor emission value by the donor emission value was regarded as BRET value. A BRET value when the compound was not added, and a BRET value when the KEAP1 solution was not added were respectively used as binding rates of 100% and 0%, and the binding rate when the compound was added was calculated. Further, using this binding rate, the 50% binding inhibitory activity concentration (IC50) was calculated from the following formula. The test was performed at N=2.
# IC50(M)=10^(LOG(A/B)×(50−C)/(D−C)+LOG(B)) • A: higher concentration out of 2 close concentrations across the inhibition rate of 50% • B: lower concentration out of 2 close concentrations across the inhibition rate of 50% • C: inhibition rate at B • D: inhibition rate at A
# Compounds A1/A2, compounds B1/B2, compounds C1/C2, and compounds D1/D2 were used as test substances. Binding assay and reporter assay were performed as in Test Example 1-1 and Test Example 1-2.
# binding between NRF2 and KEAP1, sequence (Q14145 whole entry): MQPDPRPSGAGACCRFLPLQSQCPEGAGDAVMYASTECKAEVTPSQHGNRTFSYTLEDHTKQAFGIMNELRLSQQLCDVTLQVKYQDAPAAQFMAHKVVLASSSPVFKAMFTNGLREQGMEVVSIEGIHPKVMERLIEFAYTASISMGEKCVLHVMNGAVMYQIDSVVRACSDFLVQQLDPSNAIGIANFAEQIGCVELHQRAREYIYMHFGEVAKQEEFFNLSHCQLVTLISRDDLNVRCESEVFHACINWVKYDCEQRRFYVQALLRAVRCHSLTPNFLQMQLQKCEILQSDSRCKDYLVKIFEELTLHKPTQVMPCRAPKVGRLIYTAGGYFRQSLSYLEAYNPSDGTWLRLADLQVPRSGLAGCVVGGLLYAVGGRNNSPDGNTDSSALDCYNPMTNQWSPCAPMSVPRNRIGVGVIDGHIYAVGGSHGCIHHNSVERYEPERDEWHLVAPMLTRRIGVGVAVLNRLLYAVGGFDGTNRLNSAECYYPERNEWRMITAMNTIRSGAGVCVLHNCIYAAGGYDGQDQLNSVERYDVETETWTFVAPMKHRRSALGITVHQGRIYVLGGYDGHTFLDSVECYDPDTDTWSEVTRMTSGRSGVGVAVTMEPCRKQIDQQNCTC
row,Compound,IC50
1,"CC[C@@H]1CN(Cc2cc(C(c3ccc(C(C)=O)s3)C(C)C(=O)O)ccc2C)S(=O)(=O)c2cnccc2O1 (stereo partly drawn) [Compound 16, 3-(5-acetylthiophen-2-yl)-3-(3-{[(R)-4-ethyl-1,1-dioxide-3,4-dihydro-2H-pyrido[4,3-b][1,4,5]oxathiazepin-2-yl]methyl}-4-methylphenyl)-2-methylpropanoic acid]",0.2 nM
2,"CC[C@@H]1CN(Cc2cc(C(c3cc(OC)c(C(C)=O)s3)C(C)(C)C(=O)O)ccc2C)S(=O)(=O)c2ccccc2O1 (stereo partly drawn) [Compound 4, 3-(5-acetyl-4-methoxythiophen-2-yl)-3-(3-{[(R)-4-ethyl-1,1-dioxide-3,4-dihydro-2H-benzo[b][1,4,5]oxathiazepin-2-yl]methyl}-4-methylphenyl)-2,2-dimethylpropanoic acid]",0.41 nM
3,"CC[C@@H]1CN(Cc2cc(C(c3cc(OC)c(C(C)=O)s3)C(C)C(=O)O)ccc2C)S(=O)(=O)c2cnccc2O1 (stereo partly drawn) [Compound 51, 3-(5-acetyl-4-methoxythiophen-2-yl)-3-(3-{[(R)-4-ethyl-1,1-dioxide-3,4-dihydro-2H-pyrido[4,3-b][1,4,5]oxathiazepin-2-yl]methyl}-4-methylphenyl)-2-methylpropanoic acid]",0.41 nM
4,"CC[C@@H]1CN(Cc2cc(C(c3cc(F)c(C(C)=O)s3)C(C)C(=O)O)ccc2C)S(=O)(=O)c2cnccc2O1 (stereo partly drawn) [Compound 52, 3-(5-acetyl-4-fluorothiophen-2-yl)-3-(3-{[(R)-4-ethyl-1,1-dioxide-3,4-dihydro-2H-pyrido[4,3-b][1,4,5]oxathiazepin-2-yl]methyl}-4-methylphenyl)-2-methylpropanoic acid]",0.27 nM
5,"CC[C@@H]1CN(Cc2cc(C(c3cc(F)c(C(C)=O)s3)C(C)(C)C(=O)O)ccc2C)S(=O)(=O)c2cnccc2O1 (stereo partly drawn) [Compound 49, 3-(5-acetyl-4-fluorothiophen-2-yl)-3-(3-{[(R)-4-ethyl-1,1-dioxide-3,4-dihydro-2H-pyrido[4,3-b][1,4,5]oxathiazepin-2-yl]methyl}-4-methylphenyl)-2,2-dimethylpropanoic acid]",0.31 nM
6,"CC[C@@H]1CN(Cc2cc(C(CC(=O)O)c3csc(C(=O)NC)c3)ccc2C)S(=O)(=O)c2ccccc2O1 (stereo partly drawn) [Compound 22, 3-(3-{[(R)-4-ethyl-1,1-dioxide-3,4-dihydro-2H-benzo[b][1,4,5]oxathiazepin-2-yl]methyl}-4-methylphenyl)-3-[5-(methylcarbamoyl)thiophen-3-yl]propanoic acid]",6.1 nM
7,"CC[C@@H]1CN(Cc2cc(C(c3cc(OC)c(C(C)=O)s3)C(C)(C)C(=O)O)ccc2C)S(=O)(=O)c2cnccc2O1 (stereo partly drawn) [Compound 50, 3-(5-acetyl-4-methoxythiophen-2-yl)-3-(3-{[(R)-4-ethyl-1,1-dioxide-3,4-dihydro-2H-pyrido[4,3-b][1,4,5]oxathiazepin-2-yl]methyl}-4-methylphenyl)-2,2-dimethylpropanoic acid]",0.19 nM
8,"3-[5-(cyclopropanecarbonyl)thiophen-2-yl]-3-(3-{[(R)-4-ethyl-1,1-dioxide-3,4-dihydro-2H-benzo[b][1,4,5]oxathiazepin-2-yl]methyl}-4-methylphenyl)propanoic acid [Compound 20]",24 nM
9,"CC(=O)c1ccc(C(c2ccc(C)c(CN3C[C@@H](C)Oc4ccccc4S3(=O)=O)c2)C(C)(C)C(=O)O)s1 (stereo partly drawn) [Compound 12, 3-(5-acetylthiophen-2-yl)-2,2-dimethyl-3-(4-methyl-3-{[(R)-4-methyl-1,1-dioxide-3,4-dihydro-2H-benzo[b][1,4,5]oxathiazepin-2-yl]methyl}phenyl)propanoic acid]",0.28 nM
10,"3-(3-{[(R)-4-ethyl-1,1-dioxide-3,4-dihydro-2H-benzo[b][1,4,5]oxathiazepin-2-yl]methyl}-4-methylphenyl)-3-(5-sulfamoylthiophen-2-yl)propanoic acid [Compound 18]",35 nM
11,"CC[C@@H]1CN(Cc2cc(C(c3ccc(C(C)=O)s3)C(C)(C)C(=O)O)ccc2C)S(=O)(=O)c2c(F)cccc2O1 (stereo partly drawn) [Compound 9, 3-(5-acetylthiophen-2-yl)-3-(3-{[(R)-4-ethyl-9-fluoro-1,1-dioxide-3,4-dihydro-2H-benzo[b][1,4,5]oxathiazepin-2-yl]methyl}-4-methylphenyl)-2,2-dimethylpropanoic acid]",0.3 nM

# Results, then the compound that gave them:
row,IC50,Compound
1,3.1 nM,"CC[C@@H]1CN(Cc2cc(C(CC(=O)O)c3ccc(C#N)s3)ccc2C)S(=O)(=O)c2ccccc2O1 (stereo partly drawn) [Compound 19, 3-(5-cyanothiophen-2-yl)-3-(3-{[(R)-4-ethyl-1,1-dioxide-3,4-dihydro-2H-benzo[b][1,4,5]oxathiazepin-2-yl]methyl}-4-methylphenyl)propanoic acid]"
2,28 nM,"CC[C@@H]1CN(Cc2cc(C(CC(=O)O)c3cccs3)ccc2C)S(=O)(=O)c2ccccc2O1 (stereo partly drawn) [Compound 17, 3-(3-{[(R)-4-ethyl-1,1-dioxide-3,4-dihydro-2H-benzo[b][1,4,5]oxathiazepin-2-yl]methyl}-4-methylphenyl)-3-(thiophen-2-yl)propanoic acid]"
3,0.24 nM,"CC[C@@H]1CN(Cc2cc(C(c3ccc(C(C)=O)s3)C(C)C(=O)O)ccc2C)S(=O)(=O)c2ccccc2O1 (stereo partly drawn) [Compound 1, 3-(5-acetylthiophen-2-yl)-3-(3-{[(R)-4-ethyl-1,1-dioxide-3,4-dihydro-2H-benzo[b][1,4,5]oxathiazepin-2-yl]methyl}-4-methylphenyl)-2-methylpropanoic acid]"
4,2.3 nM,"CC[C@@H]1CN(Cc2cc(C(CC(=O)O)c3ccc(C(C)=O)s3)ccc2C)S(=O)(=O)c2cnccc2O1 (stereo partly drawn) [Compound 53, 3-(5-acetylthiophen-2-yl)-3-(3-{[(R)-4-ethyl-1,1-dioxide-3,4-dihydro-2H-pyrido[4,3-b][1,4,5]oxathiazepin-2-yl]methyl}-4-methylphenyl)propanoic acid]"
5,1.3 nM,"CC[C@@H]1CN(Cc2cc(C(CC(=O)O)c3sc(C(C)=O)cc3C)ccc2C)S(=O)(=O)c2ccccc2O1 (stereo partly drawn) [Compound 14, 3-(5-acetyl-3-methylthiophen-2-yl)-3-(3-{[(R)-4-ethyl-1,1-dioxide-3,4-dihydro-2H-benzo[b][1,4,5]oxathiazepin-2-yl]methyl}-4-methylphenyl)propanoic acid]"
6,0.23 nM,"CC[C@@H]1CN(Cc2cc(C(CC(=O)O)c3ccc(C(C)=O)s3)ccc2C)S(=O)(=O)c2ccccc2O1 (stereo partly drawn) [Compound 5, 3-(5-acetylthiophen-2-yl)-3-(3-{[(R)-4-ethyl-1,1-dioxide-3,4-dihydro-2H-benzo[b][1,4,5]oxathiazepin-2-yl]methyl}-4-methylphenyl)propanoic acid]"
7,0.3 nM,"CC[C@@H]1CN(Cc2cc(C(CC(=O)O)c3cc(C(C)=O)cs3)ccc2C)S(=O)(=O)c2ccccc2O1 (stereo partly drawn) [Compound 10, 3-(4-acetylthiophen-2-yl)-3-(3-{[(R)-4-ethyl-1,1-dioxide-3,4-dihydro-2H-benzo[b][1,4,5]oxathiazepin-2-yl]methyl}-4-methylphenyl)propanoic acid]"
8,0.27 nM,"CC[C@@H]1CN(Cc2cc(C(c3ccc(C(C)=O)s3)C(C)(C)C(=O)O)ccc2C)S(=O)(=O)c2ccccc2O1 (stereo partly drawn) [Compound 6, 3-(5-acetylthiophen-2-yl)-3-(3-{[(R)-4-ethyl-1,1-dioxide-3,4-dihydro-2H-benzo[b][1,4,5]oxathiazepin-2-yl]methyl}-4-methylphenyl)-2,2-dimethylpropanoic acid]"
